In general, IC50 refers to the concentration that inhibits the measured activity by half.

Each structure is given as a SMILES string.

In one test the target is T1, full-length recombinant human NEK7 (Homo sapiens, UniProt Q8TDX7).
T1 construct: full-length recombinant human NEK7; GST (N); purchased SignalChem N09-10G; host or cells: Sf9 insect cells (baculovirus)
T1 sequence (Q8TDX7 whole entry): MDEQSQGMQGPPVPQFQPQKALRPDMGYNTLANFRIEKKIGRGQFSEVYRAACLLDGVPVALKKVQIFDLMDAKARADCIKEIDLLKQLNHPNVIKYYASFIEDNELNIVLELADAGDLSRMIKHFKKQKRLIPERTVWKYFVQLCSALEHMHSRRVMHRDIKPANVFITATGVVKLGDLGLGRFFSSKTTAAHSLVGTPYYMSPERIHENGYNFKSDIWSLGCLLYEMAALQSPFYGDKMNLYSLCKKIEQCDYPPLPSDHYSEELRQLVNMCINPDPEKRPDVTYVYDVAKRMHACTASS
The test is described as follows: NEK7 enzymatic assay ([33P]-ATP, casein substrate). The format is biochemical. The following applies: Table 2b; recombinant human NEK7, casein substrate. The procedure:
In some embodiments, the IC50 of the compounds of Structure (I), (Ia), (Ib), (Ic), (Id), (Ie), or (If) to inhibit NEK7 was determined by the concentration of the compound required to inhibit 50% of the activity of the NEK kinase.
(§1) Casein substrate (from bovine milk, hydrolyzed and partially dephosphorylated mixture of α, β and κ caseins, obtained from Sigma Aldrich, catalogue #C4765, diluted in distilled water to a final concentration of 1 mg/mL) and full-length recombinant human NEK7 (expressed by baculovirus in Sf9 insect cells using a N-terminal GST tag, obtained from SignalChem, catalogue #N09-10G, 0.1 μg/μL) were mixed in assay buffer (20 mM Hepes pH 7.5, 10 mM MgCl2, 1 mM EGTA, 0.02% Brij35, 0.02 mg/ml BSA, 0.1 mM Na3 VO4, 2 mM DTT, 1% DMSO). Compounds of interest (serial 3-fold dilution in DMSO from 10 μM to 0.5 nM) or vehicle (1% DMSO) were dispensed into the kinase reaction mixture by Acoustic technology (Echo550, nanoliter range). After incubation at room temperature for 20 minutes, the kinase reaction was initiated by addition of [^33P]-ATP (specific activity 10 μCi/μl) and the mixture was incubated at room temperature for 2 hours. The reaction was then stopped by spotting the reaction mixture on strips of phosphocellulose P81 paper. Following washing, the radioactivity of the P81 paper was measured and kinase activity data were expressed as the percent remaining kinase activity in test samples compared to vehicle reactions. IC50 values and curve fits were obtained using Prism (GraphPad Software).
as §1, with “μg/L)” for “μg/μL)”, “Na3VO4,” for “Na3 VO4,”, “(Echo550;” for “(Echo550,”
In the case of `O=C(Nc1ccc(Oc2ccnc3[nH]cc(Cl)c23)cc1F)Nc1cc(C2CC2)nn1-c1ccccc1` [Ib-11, 1-(4-((3-chloro-1H-pyrrolo[2,3-b]pyridin-4-yl)oxy)-2-fluorophenyl)-3-(3-cyclopropyl-1-phenyl-1H-pyrazol-5-yl)urea], the IC50 was 501 to 1500 nM.
As to `CC(C)(C)c1cc(NC(=O)Nc2ccc(Oc3ncnc4[nH]cc(Cl)c34)cc2F)n(-c2ccccc2)n1` [Ib-13, 1-(3-(tert-butyl)-1-phenyl-1H-pyrazol-5-yl)-3-(4-((5-chloro-7H-pyrrolo[2,3-b]pyrimidin-4-yl)oxy)-2-fluorophenyl)urea], the IC50 is > 1500 nM.
On the same count and under the same terms, in the case of `CC(C)(C)c1cc(NC(=O)Nc2cc(F)c(Oc3ccnc4[nH]cc(Cl)c34)cc2F)n(-c2ccccc2)n1` [Ib-15] it was > 1500 nM.
Still for that read-out and setting: the result for `CC(C)(C)c1cc(NC(=O)NC2CCC(Oc3ccnc4[nH]ccc34)CC2)n(-c2ccccc2)n1` (stereo not drawn) [Ib-16, 1-(4-((1H-pyrrolo[2,3-b]pyridin-4-yl)oxy)cyclohexyl)-3-(3-(tert-butyl)-1-phenyl-1H-pyrazol-5-yl)urea] reads > 1500 nM; that for `O=C(Nc1ccc(Oc2ccnc3[nH]cc(Cl)c23)cc1F)Nc1cc(C2(C(F)(F)F)CC2)nn1-c1ccccc1` [Ib-17, 1-(4-((3-chloro-1H-pyrrolo[2,3-b]pyridin-4-yl)oxy)-2-fluorophenyl)-3-(1-phenyl-3-(1-(trifluoromethyl)cyclopropyl)-1H-pyrazol-5-yl)urea], > 1500 nM; that for `Cc1nc2c(Oc3ccc(NC(=O)Nc4cc(C(C)(C)C)nn4-c4ccccc4)c(F)c3)ccnc2[nH]1` [Ib-19, 1-(3-(tert-butyl)-1-phenyl-1H-pyrazol-5-yl)-3-(2-fluoro-4-((2-methyl-3H-imidazo[4,5-b]pyridin-7-yl)oxy)phenyl)urea], > 1500 nM.
Same read-out and setting: in the case of `CC(C)(C)c1cc(NC(=O)NC2CCC(Oc3ccnc4[nH]cc(Cl)c34)CC2)n(-c2ccccc2)n1` (stereo not drawn) [Ib-20, 1-(3-(tert-butyl)-1-phenyl-1H-pyrazol-5-yl)-3-(4-((3-chloro-1H-pyrrolo[2,3-b]pyridin-4-yl)oxy)cyclohexyl)urea] it was > 1500 nM; in that of `CN1CCC(n2nc(C(C)(C)C)cc2NC(=O)Nc2ccc(Oc3ccnc4[nH]cc(Cl)c34)cc2F)CC1` [Ib-21, 1-(3-(tert-butyl)-1-(1-methylpiperidin-4-yl)-1H-pyrazol-5-yl)-3-(4-((3-chloro-1H-pyrrolo[2,3-?]pyridin-4-yl)oxy)-2-fluorophenyl)urea], > 1500 nM.
For `CC(C)(C)c1cc(NC(=O)Cc2ccc(Oc3ccnc4[nH]cc(Cl)c34)cc2F)n(-c2ccccc2)n1` [Ib-22, N-(3-(tert-butyl)-1-phenyl-1H-pyrazol-5-yl)-2-(4-((3-chloro-1H-pyrrolo[2,3-b]pyridin-4-yl)oxy)-2-fluorophenyl)acetamide], the IC50 was > 1500 nM.

The test is the same for the next values; noted with them: Table 2d; recombinant human NEK7, casein substrate.
Take `Cc1cc(NC(=O)Nc2ccc(-c3nn(C(C)C)c4ncnc(N)c34)cc2)ccc1N1CCOCC1` [Id-1, 1-(4-(4-amino-1-isopropyl-1H-pyrazolo[3,4-J]pyrimidin-3-yl)phenyl)-3-(3-methyl-4-morpholinophenyl)urea]: the IC50 was > 1500 nM.
The same measure, in the same setting: in the case of `CCN1CCN(Cc2ccc(NC(=O)Nc3ccc(-c4nn(C5CC5)c5ncnc(N)c45)cc3F)cc2C(F)(F)F)CC1` [Id-7, 1-(4-(4-amino-t-cyclopropyl-1H-pyrazolo[3,4-d]pyrimidin-3-yl)-2-fluorophenyl)-3-(4-((4-ethylpiperazin-1-yl)methyl)-3-(trifluoromethyl)phenyl)urea] it was > 1500 nM; in that of `Cc1cn(-c2ccc(NC(=O)Nc3ccc(-c4cn(C5CC5)c5ncnc(N)c45)cc3F)cc2C(F)(F)F)cn1` [Id-23], > 1500 nM; in that of `Nc1ncnc2c1c(-c1ccc(NC(=O)Nc3ccc(CN4CCOCC4)cc3F)c(F)c1)nn2C1CC1` [Id-26, 1-(4-(4-amino-1-cyclopropyl-1H-pyrazolo[3,4-d]pyrimidin-3-yl)-2-fluorophenyl)-3-(2-fluoro-4-(morpholinomethyl)phenyl)urea], > 1500 nM.
On the same count and under the same terms, the result for `CN1CCN(Cc2ccc(NC(=O)Nc3ccc(-c4nn(C5CC5)c5ncnc(N)c45)cn3)cc2C(F)(F)F)CC1` [Id-29, 1-(5-(4-amino-1-cyclopropyl-1H-pyrazolo[3,4-d]pyrimidin-3-yl)pyridin-2-yl)-3-(4-((4-methylpiperazin-1-yl)methyl)-3-(trifluoromethyl)phenyl)urea] reads 151 to 300 nM; that for `Cc1cc(NC(=O)Nc2ccc(-c3cn(C4CC4)c4ncnc(N)c34)cc2F)ccc1N1CCOCC1` [Id-32, 1-(4-(4-amino-7-cyclopropyl-7H-pyrrolo[2,3-d]pyrimidin-5-yl)-2-fluorophenyl)-3-(3-methyl-4-morpholinophenyl)urea], > 1500 nM.
For `CN1CCN(Cc2ccc(NC(=O)Nc3ccc(-c4cn(C5CC5)c5ncnc(N)c45)cc3Cl)cc2C(F)(F)F)CC1` [Id-34, 1-(4-(4-amino-7-cyclopropyl-7H-pyrrolo[2,3-d]pyrimidin-5-yl)-2-chlorophenyl)-3-(4-((4-methylpiperazin-1-yl)methyl)-3-(trifluoromethyl)phenyl)urea], the half-maximal inhibitory concentration (IC50) is 151 to 300 nM.
Turning to `CN1CCN(Cc2ccc(NC(=O)Nc3ccc(-c4cn(C5CC5)c5ncnc(N)c45)cc3F)cc2F)CC1` [Id-35, 1-(4-(4-amino-7-cyclopropyl-7H-pyrrolo[2,3-d]pyrimidin-5-yl)-2-fluorophenyl)-3-(3-fluoro-4-((4-methylpiperazin-1-yl)methyl)phenyl)urea], the half-inhibitory concentration (IC50) is 301 to 500 nM.
As to `CN1CCN(Cc2ccc(NC(=O)Nc3ccc(-c4cn(C5CC5)c5ncnc(N)c45)cc3F)cc2Cl)CC1` [Id-36, 1-(4-(4-amino-7-cyclopropyl-7H-pyrrolo[2,3-d]pyrimidin-5-yl)-2-fluorophenyl)-3-(3-chloro-4-((4-methylpiperazin-1-yl)methyl)phenyl)urea], the IC50 was < 150 nM.
Turning to `COc1cc(NC(=O)Nc2ccc(-c3cn(C4CC4)c4ncnc(N)c34)cc2F)ccc1CN1CCN(C)CC1` [Id-37, 1-(4-(4-amino-7-cyclopropyl-7H-pyrrolo[2,3-d]pyrimidin-5-yl)-2-fluorophenyl)-3-(3-methoxy-4-((4-methylpiperazin-1-yl)methyl)phenyl)urea], the concentration for half-maximal inhibition (IC50) was > 1500 nM.
As to `CCN1CCN(Cc2ccc(NC(=O)Nc3ccc(-c4cn(C5CC5)c5ncnc(N)c45)cc3F)cc2C(F)(F)F)CC1` [Id-40, 1-(4-(4-amino-7-cyclopropyl-7H-pyrrolo[2,3-d]pyrimidin-5-yl)-2-fluorophenyl)-3-(4-((4-ethylpiperazin-1-yl)methyl)-3-(trifluoromethyl)phenyl)urea], the IC50 was < 150 nM.
Same read-out and setting: in the case of `Nc1ncnc2c1c(-c1ccc(NC(=O)Nc3ccc(CN4CCN(CCO)CC4)c(C(F)(F)F)c3)c(F)c1)cn2C1CC1` [Id-41, 1-(4-(4-amino-7-cyclopropyl-7H-pyrrolo[2,3-d]pyrimidin-5-yl)-2-fluorophenyl)-3-(4-((4-(2-hydroxyethyl)piperazin-1-yl)methyl)-3-(trifluoromethyl)phenyl)urea] it was < 150 nM.
Turning to `COCCN1CCN(Cc2ccc(NC(=O)Nc3ccc(-c4cn(C5CC5)c5ncnc(N)c45)cc3F)cc2C(F)(F)F)CC1` [Id-42, 1-(4-(4-amino-7-cyclopropyl-7H-pyrrolo[2,3-d]pyrimidin-5-yl)-2-fluorophenyl)-3-(4-((4-(2-methoxyethyl)piperazin-1-yl)methyl)-3-(trifluoromethyl)phenyl)urea], the IC50 is < 150 nM.
Same read-out and setting: the result for `CN1CCCN(Cc2ccc(NC(=O)Nc3ccc(-c4cn(C5CC5)c5ncnc(N)c45)cc3F)cc2C(F)(F)F)CC1` [Id-43, 1-(4-(4-amino-7-cyclopropyl-7H-pyrrolo[2,3-d]pyrimidin-5-yl)-2-fluorophenyl)-3-(4-((4-methyl-1,4-diazepan-1-yl)methyl)-3-(trifluoromethyl)phenyl)urea] reads < 150 nM.
For the molecule `CN(C)C1CCN(Cc2ccc(NC(=O)Nc3ccc(-c4cn(C5CC5)c5ncnc(N)c45)cc3F)cc2C(F)(F)F)C1` (stereo not drawn) [Id-44, 1-(4-(4-amino-7-cyclopropyl-7H-pyrrolo[2,3-d]pyrimidin-5-yl)-2-fluorophenyl)-3-(4-((3-(dimethylamino)pyrrolidin-1-yl)methyl)-3-(trifluoromethyl)phenyl)urea], the IC50 was < 150 nM.

Values taken from patent US20230210853A1 (Halia Therapeutics, Inc., priority 2020, published 2023).
